For 25 compounds, IC50 results are on record in patent publication US7893066B2, “Pyridol[2,3-B]pyrazinones for use as stearoyl CoA desaturase inhibitors” (Gilead Palo Alto, Inc., priority 2006, dated 2011).

This experiment addresses T1, stearoyl-CoA desaturase (SCD) (Rattus norvegicus, UniProt P07308).
T1 construct: from tissue; host or cells: liver microsomes of male Sprague Dawley rats, with SCD induced by a carbohydrate-rich diet
T1 sequence (P07308 1-358): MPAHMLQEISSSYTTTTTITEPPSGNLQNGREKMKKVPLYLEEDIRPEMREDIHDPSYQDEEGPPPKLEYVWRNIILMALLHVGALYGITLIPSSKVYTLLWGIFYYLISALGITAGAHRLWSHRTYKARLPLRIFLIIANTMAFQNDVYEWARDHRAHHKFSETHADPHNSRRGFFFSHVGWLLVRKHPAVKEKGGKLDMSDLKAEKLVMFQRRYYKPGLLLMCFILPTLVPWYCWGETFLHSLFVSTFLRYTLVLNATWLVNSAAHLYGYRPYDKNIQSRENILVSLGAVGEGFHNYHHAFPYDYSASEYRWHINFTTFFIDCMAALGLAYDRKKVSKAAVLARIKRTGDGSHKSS
The experiment in a line: SCD assay, rat liver microsomes with [3H]stearoyl CoA (adapted from Talamo and Bloch). The format is biochemical. To be noted: second table, same SCD assay. The text has this: The identification of compounds of the invention as SCD inhibitors was readily accomplished using the SCD enzyme and microsomal assay procedure described in Talamo and Bloch (1969) Analytical Biochemistry 29:300-304.
The rat liver microsomes were collected according to the procedure described in Ozols (1990) Methods Enzm, 182:225.
Male Spraque Dawley Rats were placed on regimented fasting protocol for one week to stimulate SCD enzymatic activity. 48-hour periods were alternated between feeding and fasting to induce and down-regulate SCD activity with SCD activity being induced via carbohydrate rich diet prior to liver perfusion and collection.
The rats were anesthetized with Isoflurane inhalation anesthetic, the liver perfused with cold phosphate buffered saline (PBS), weighed, and chilled in cold homogenization buffer (250 mM sucrose, 10 mM Tris, 1 mM EDTA, pH 7.6.
The livers were finely minced and placed in homogenization tube. 40 mL of homogenization buffer was added to the homogenization tube and the liver homogenized and centrifuged in a pre-chilled SLA-600 TC at 800G rotor for 10 min at 4° C.
Following centrifugation, the supernatant was collected and the pellet removed and discarded. This supernatant was then centrifuged at 10,000G for 35 minutes. Following centrifugation, the supernatant was collected and the pellet discarded. The supernatant was further centrifuged in a pre-chilled 45-Ti rotor at 130,000 G (41,000 RPM) for 90 minutes at 4° C.
The supernatant was then aspirated off and the collected microsomal pellet washed in 25 mL of Glycerol PBS (1×PBS 7.4, 20% Glycerol) and resuspended in 4-5 volumes of Glycerol PBS.
The protein concentration of the microsomal preparation was determined by BCA assay (Pierce) and the microsomes were aliquoted and stored at −80° C.
Biobeads were ground to a smaller size in a mortar and pestle and filtered through 300 μM mesh and then resuspended in 3.6% TCA.
SCD was determined in the desaturase assay buffer. This assay buffer contained 0.1 M Tris buffer, pH 7.2, 2 mM NADH, 4.8 mM ATP, 0.5 mM CoA, 4.8 mM MgCl2, and 0.1% BSA.
1 μl of each compound of Formula I was added to an assay plate by a low volume (0.5-10 μL) multichannel pipette. A DMSO control was also prepared. The microsomes were quickly thawed and added to assay buffer so that a concentration of 1-0.1 mg/ml was achieved (0.5-0.05 mg/ml assay final). 50 μl of the microsome suspension in assay buffer was then added into each well in the compound assay plate, the plate was covered, and the microsomes preincubated with the compounds for 30-60 minutes on the orbital shaker, 50-75 rpm, at room temperature.
After preincubation, the reaction was initiated by the addition of 50 μl of substrate solution (20 μM Stearoyl CoA, [3H]Stearoyl CoA, 74nCi) to the preincubated microsomes/compound suspensions in MilliQ (Millipore) H2O. The reaction mixtures were then incubated for 45 minutes on the orbital shaker at 50-75 rpm at room temperature.
The reaction was terminated by the addition of 10 μl of 21% trichloroacetic acid (TCA) to the reaction mixture followed incubation on the orbital shaker for 30 minutes at 50-75 rpm at room temperature followed by centrifugation for 5 minutes at 3700 rpm.
50 μl of a 6% Bio-Bead suspension in H2O was added to the reaction mixture and the assay plate was sealed. The Bio-Bead mixture was incubated on the orbital shaker for 1 to 24 hours, 100-150 rpm at room temperature, and then the mixture was centrifuged at 2000g for 5 minutes to pellet the Bio-Beads.
25 μl of the supernatant was harvested from each well and transferred to a detection plate. 100 μl of OptiPhase SuperMix scinitillation cocktail (containing sufficient NaOH to neutralize the TCA) was added and the solutions mixed by vigorous shaking (300-400 rpm) for 5 minutes at room temperature.
In general terms: Liver microsomes are vesicles of endoplasmic reticulum, rich in cytochrome P450 enzymes.

By IC50 is commonly meant the concentration at which inhibition is half-maximal. In turn, “3-(2-(4-methoxyphenyl)-3-oxo-6-(3-(trifluoromethyl)benzylamino)pyrido[2,3-b]pyrazin-4(3H)-yl)propanamide [compound 6]” displayed an IC50 of 35 nM.
`COc1ccc(-c2nc3ccc(NCc4ccc(Cl)c(Cl)c4)nc3n(CCNC(=O)CN(C)C)c2=O)cc1` [compound 32, N-(2-(6-(3,4-dichlorobenzylamino)-2-(4-methoxyphenyl)-3-oxopyrido[2,3-b]pyrazin-4(3H)-yl)ethyl)-2-(dimethylamino)acetamide] returned a 50% inhibitory concentration (IC50) of 12000 nM.
With `COCCOc1ccc(-c2nc3ccc(NCc4cccc(C(F)(F)F)c4)nc3n(CCNC(C)=O)c2=O)cc1` [compound 23, N-(2-(2-(4-(2-methoxyethoxy)phenyl)-3-oxo-6-(3-(trifluoromethyl)benzylamino)pyrido[2,3-b]pyrazin-4(3H)-yl)ethyl)acetamide], it took 230 nM to reach half-maximal inhibition (IC50).
Under `COc1ccc(-c2nc3ccc(NCc4cc(C(F)(F)F)ccc4F)nc3n(CCNC(C)=O)c2=O)cc1` [compound 21, N-(2-(6-(2-fluoro-5-(trifluoromethyl)benzylamino)-2-(4-methoxyphenyl)-3-oxopyrido[2,3-b]pyrazin-4(3H)-yl)ethyl)acetamide] stands 1500 nM; under `COc1ccc(-c2nc3ccc(NCc4ccc(Cl)c(C(F)(F)F)c4)cc3n(CCNC(C)=O)c2=O)cc1` [compound 62, N-(2-(7-(4-chloro-3-(trifluoromethyl)benzylamino)-3-(4-methoxyphenyl)-2-oxoquinoxalin-1(2H)-yl)ethyl)acetamide;], 6 nM.
For the compound `CC(=O)NCCN1C(=O)C(C)Nc2cc(NC(=O)OCc3ccccc3)cnc21` (stereo not shown) [compound 44, benzyl 4-(2-acetamidoethyl)-2-methyl-3-oxo-1,2,3,4-tetrahydropyrido[2,3-b]pyrazin-7-ylcarbamate], the IC50 worked out at 240 nM.
For “3-(2-(4-ethylphenyl)-3-oxo-6-(3-(trifluoromethyl)benzylamino)pyrido[2,3-b]pyrazin-4(3H)-yl)propanamide [compound 29]”, the IC50 worked out at 150 nM.
“3-(2-(4-(2-methoxyethoxy)phenyl)-3-oxo-6-(3-(trifluoromethyl)benzylamino)pyrido[2,3-b]pyrazin-4(3H)-yl)propanamide [compound 30]”: the IC50 was 190 nM.
`COc1ccc(-c2nc3cc(NCc4ccc(Cl)c(Cl)c4)cnc3n(CCNC(C)=O)c2=O)cc1` [compound 42, N-(2-(7-(3,4-dichlorobenzylamino)-2-(4-methoxyphenyl)-3-oxopyrido[2,3-b]pyrazin-4(3H)-yl)ethyl)acetamide] registered a 50% inhibitory concentration (IC50) of 2200 nM.
The compound “(S)-2-hydroxy-N-(2-(3-methyl-2-oxo-7-(3-(trifluoromethyl)benzylamino)quinoxalin-1(2H)-yl)ethyl)propanamide [compound 48]” registered a half-inhibitory concentration (IC50) of 8000 nM.
As for “(S)-3-(2-(4-methoxyphenyl)-3-oxo-6-(3-(trifluoromethyl)benzylamino)pyrido[2,3-b]pyrazin-4(3H)-yl)butanamide [compound 39]”, the IC50 came out at 19000 nM.
Regarding `COc1ccc(-c2nc3ccc(NCc4ccccc4)nc3n(CCNC(C)=O)c2=O)cc1` [compound 8, N-(2-(6-(benzylamino)-2-(4-methoxyphenyl)-3-oxopyrido[2,3-b]pyrazin-4(3H)-yl)ethyl)acetamide], half-maximal inhibition (IC50) required 840 nM.
As to `COc1ccc(-c2nc3ccc(NCc4ccc(F)c(C)c4)cc3n(CCNC(C)=O)c2=O)cc1` [compound 63, N-(2-(7-(4-fluoro-3-methylbenzylamino)-3-(4-methoxyphenyl)-2-oxoquinoxalin-1(2H)-yl)ethyl)acetamide], half-maximal inhibition (IC50) required 5 nM.
As for “N-(2-(3-oxo-6-(3-(trifluoromethyl)benzylamino)-2-(4-(trifluoromethyl)phenyl)pyrido[2,3-b]pyrazin-4(3H)-yl)ethyl)acetamide [compound 37]”, it took 1300 nM to reach half-maximal inhibition (IC50).
Under `COc1ccc(-c2nc3ccc(NCc4ccc(Cl)c(Cl)c4)nc3n([C@H]3CCNC3)c2=O)cc1` [compound 2, (S)-6-(3,4-dichlorobenzylamino)-2-(4-methoxyphenyl)-4-(pyrrolidin-3-yl)pyrido[2,3-b]pyrazin-3(4H)-one] stands 1800 nM; under `CCOC(=O)c1nc2ccc(NCc3cccc(C(F)(F)F)c3)nc2n(CCNC(C)=O)c1=O` [compound 17, ethyl 4-(2-acetamidoethyl)-3-oxo-6-(3-(trifluoromethyl)benzylamino)-3,4-dihydropyrido[2,3-b]pyrazine-2-carboxylate], 6700 nM; under “N-(2-(7-(2-(2-chlorophenoxy)ethylamino)-3-(4-methoxyphenyl)-2-oxoquinoxalin-1(2H)-yl)ethyl)acetamide [compound 55]”, 250 nM.
The compound `CCCc1ccc(-c2nc3ccc(NCc4cccc(C(F)(F)F)c4)nc3n(CCNC(C)=O)c2=O)cc1` [compound 24, N-(2-(3-oxo-2-(4-propylphenyl)-6-(3-(trifluoromethyl)benzylamino)pyrido[2,3-b]pyrazin-4(3H)-yl)ethyl)acetamide] showed an IC50 of 100 nM.
On to `COc1ccc(-c2nc3ccc(NCc4cccc(OC(F)(F)F)c4)nc3n(CCNC(C)=O)c2=O)cc1` [compound 20], for which the concentration for half-maximal inhibition (IC50) turned out to be 260 nM.
The compound `COc1ccc(-c2nc3ccc(NCc4ccc(Cl)c(Cl)c4)nc3n(CCNC(=O)COC(C)=O)c2=O)cc1` [compound 33, 2-(2-(6-(3,4-dichlorobenzylamino)-2-(4-methoxyphenyl)-3-oxopyrido[2,3-b]pyrazin-4(3H)-yl)ethylamino)-2-oxoethyl acetate] displayed an IC50 of 120 nM.
The compound `CC(=O)NCCn1c(=O)cnc2ccc(NCc3cccc(C(F)(F)F)c3)nc21` [compound 7, N-(2-(3-oxo-6-(3-(trifluoromethyl)benzylamino)pyrido[2,3-b]pyrazin-4(3H)-yl)ethyl)acetamide] had an IC50 of 220 nM.
`CC(=O)NCCn1c(=O)c(-c2ccc(NC(C)=O)cc2)nc2ccc(NCc3cccc(C(F)(F)F)c3)nc21` [compound 25, N-(4-(4-(2-acetamidoethyl)-3-oxo-6-(3-(trifluoromethyl)benzylamino)-3,4-dihydropyrido[2,3-b]pyrazin-2-yl)phenyl)acetamide] showed an IC50 of 4300 nM.
In the case of `COc1ccc(-c2nc3ccc(NCCc4cccc(Cl)c4)cc3n(CCNC(C)=O)c2=O)cc1` [compound 54, N-(2-(7-(3-chlorophenethylamino)-3-(4-methoxyphenyl)-2-oxoquinoxalin-1(2H)-yl)ethyl)acetamide], it took 100 nM to reach half-maximal inhibition (IC50).
Then `COc1ccc(-c2nc3ccc(NCc4cc(C(F)(F)F)ccn4)cc3n(CCNC(C)=O)c2=O)cc1` [compound 64, N-(2-(3-(4-methoxyphenyl)-2-oxo-7-((4-(trifluoromethyl)pyridin-2-yl)methylamino)quinoxalin-1(2H)-yl)ethyl)acetamide], with 39 nM.
On to “3-(3-oxo-6-(3-(trifluoromethyl)benzylamino)-2-(4-(trifluoromethyl)phenyl)pyrido[2,3-b]pyrazin-4(3H)-yl)propanamide [compound 38]”, for which the half-maximal inhibitory concentration (IC50) was determined as 130 nM.
